Patent publication US10966426B2, “Herbicidal compositions comprising phenylpyrimidines” (BASF SE, priority 2016, dated 2021)
Several values for one entry are separate records, joined by “and”; a condition that tells them apart may be missing. Equal entries are not always repeated.

Experiments:
Format in all cases: in vivo
Alopecurus myosuroides = test: greenhouse post-emergence treatment, ALOMY
How it was run: (§1)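 Seeds sown per species in loamy sand substrate (about 3.0% humus); some raised separately and transplanted shortly before treatment. Treatments applied in water post-emergence, plants held at 10-25° C. or 20-35° C. by species, then scored after 2 to 4 weeks, where 100 means total kill and 0 no damage.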

Helianthus annuus = test: greenhouse post-emergence treatment, HELAN
How it was run: (§2)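 Mixtures formulated as 10% by weight emulsion concentrates, applied in water post-emergence to plants of 3–15 cm. Cool-season species held at 10-25° C., warm-season at 20-35° C.; rating 0 (no damage) to 100 (destruction).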

Galium aparine = test: greenhouse post-emergence treatment, GALAP
How it was run: (§3)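 Each species was grown separately and treated once it reached 3 to 15 cm, using actives suspended or emulsified in water. Plants were kept at 10-25° C. or 20-35° C., depending on species. Damage is a 0–100 rating taken during 2 to 4 weeks.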

Stellaria media = test: greenhouse post-emergence treatment, STEME
How it was run: as §2

Echinocloa crus-galli = test: greenhouse post-emergence treatment, ECHCG
How it was run: as §3

Digitaria sanguinalis = test: greenhouse post-emergence treatment, DIGSA
How it was run: as §1

Apera spica-venti = test: greenhouse post-emergence treatment, APESV
How it was run: as §2

[1] = 20 DAT, Ex. 26 solo 62.5 gai/ha

SMILES: COC(=O)c1nc(C2CC2)ncc1-c1ccc(F)cc1Cl [Ex. 26]
- % activity (Alopecurus myosuroides; 21 DAT, Ex. 26 solo 250 gai/ha): 75%
- % activity (Alopecurus myosuroides; ALOMY, Ex. 26 solo 125 gai/ha, 20 DAT): 75% and 70%
- % activity (Alopecurus myosuroides; ALOMY, Ex. 26 solo 250 gai/ha, 20 DAT): 75%
- % activity (Alopecurus myosuroides; Ex. 26 solo 62.5 gai/ha, 21 DAT, ALOMY): 40%
- % activity (Alopecurus myosuroides; Ex. 26 solo 125 gai/ha, 20 DAT, ALOMY (pinoxaden table)): 73%
- % activity (Alopecurus myosuroides; Ex. 26 solo 125 gai/ha, 20 DAT, ALOMY (pyridate table)): 70%
- % activity (Alopecurus myosuroides; Ex. 26 solo 250 gai/ha, 20 DAT, ALOMY (pyridate table)): 75%
- % activity (Helianthus annuus; 20 DAT, Ex. 26 solo 250 gai/ha): 0%
- % activity (Helianthus annuus; 20 DAT, HELAN, Ex. 26 solo 125 gai/ha): 0% and 10%
- % activity (Helianthus annuus; 20 DAT, HELAN, Ex. 26 solo 250 gai/ha): 10%
- % activity (Helianthus annuus; Ex. 26 solo 62.5 gai/ha, 20 DAT, HELAN): 0%
- % activity (Helianthus annuus; Ex. 26 solo 125 gai/ha, 20 DAT, HELAN): 0%
- % activity (Helianthus annuus; Ex. 26 solo 250 gai/ha, 20 DAT, HELAN): 5%
- % activity (Helianthus annuus; Ex. 26 solo, 125 gai/ha, 21 DAT, HELAN): 10%
- % activity (Helianthus annuus; Ex. 26 solo, 250 gai/ha, 21 DAT, HELAN): 25%
- % activity (Galium aparine; 20 DAT, Ex. 26 solo 125 gai/ha): 0%
- % activity (Galium aparine; 20 DAT, GALAP, Ex. 26 solo 62.5 gai/ha): 0%
- % activity (Galium aparine; 20 DAT, GALAP, Ex. 26 solo 125 gai/ha): 0%
- % activity (Galium aparine; 20 DAT, GALAP, Ex. 26 solo 250 gai/ha): 0%
- % activity (Galium aparine; Ex. 26 solo 62.5 gai/ha, 20 DAT, GALAP (pyridate table)): 0%
- % activity (Galium aparine; Ex. 26 solo 62.5 gai/ha, 20 DAT, GALAP (pyroxsulam table)): 0%
- % activity (Galium aparine; Ex. 26 solo 125 gai/ha, 20 DAT, GALAP (pyridate table)): 0%
- % activity (Galium aparine; Ex. 26 solo 125 gai/ha, 20 DAT, GALAP (pyroxsulam table)): 0%
- % activity (Galium aparine; Ex. 26 solo 125 gai/ha, 21 DAT, GALAP): 0%
- % activity (Galium aparine; Ex. 26 solo 250 gai/ha, 20 DAT, GALAP (pyridate table)): 0%
- % activity (Galium aparine; Ex. 26 solo 250 gai/ha, 20 DAT, GALAP (pyroxsulam table)): 30%
- % activity (Galium aparine; Ex. 26 solo 250 gai/ha, 21 DAT, GALAP): 0%
- % activity (Galium aparine; GALAP, 21 DAT, solo Ex. 26 250 gai/ha): 25%
- % activity (Galium aparine; GALAP, Ex. 26 solo 125 gai/ha, 20 DAT): 0%
- % activity (Galium aparine; GALAP, Ex. 26 solo 250 gai/ha, 20 DAT): 0%
- % activity (Stellaria media; [1]): 0%
- % activity (Stellaria media; 20 DAT, STEME, Ex. 26 solo 250 gai/ha): 60%
- % activity (Stellaria media; Ex. 26 solo 62.5 gai/ha, 20 DAT, STEME): 20%
- % activity (Stellaria media; Ex. 26 solo 125 gai/ha, 20 DAT, STEME): 55%
- % activity (Stellaria media; Ex. 26 solo 125 gai/ha, 21 DAT, STEME): 0%
- % activity (Stellaria media; Ex. 26 solo 250 gai/ha, 20 DAT, STEME): 30%
- % activity (Stellaria media; Ex. 26 solo, 125 gai/ha, 21 DAT, STEME): 0%
- % activity (Stellaria media; Ex. 26 solo, 250 gai/ha, 21 DAT, STEME): 10%
- % activity (Stellaria media; STEME, 21 DAT, solo Ex. 26 62.5 gai/ha): 0%
- % activity (Stellaria media; STEME, 21 DAT, solo Ex. 26 125 gai/ha): 0%
- % activity (Stellaria media; STEME, 21 DAT, solo Ex. 26 250 gai/ha): 10%
- % activity (Stellaria media; STEME, Ex. 26 solo 125 gai/ha, 20 DAT): 40%
- % activity (Stellaria media; STEME, Ex. 26 solo 250 gai/ha, 20 DAT): 40%
- % activity (Echinocloa crus-galli; 20 DAT, ECHCG, Ex. 26 solo 125 gai/ha): 65%
- % activity (Echinocloa crus-galli; 20 DAT, ECHCG, Ex. 26 solo 250 gai/ha): 70%
- % activity (Echinocloa crus-galli; 20 DAT, Ex. 26 solo 250 gai/ha): 80% and 60%
- % activity (Echinocloa crus-galli; ECHCG, Ex. 26 solo 62.5 gai/ha, 20 DAT): 60%
- % activity (Echinocloa crus-galli; ECHCG, Ex. 26 solo 125 gai/ha, 20 DAT): 65%
- % activity (Echinocloa crus-galli; ECHCG, Ex. 26 solo 250 gai/ha, 20 DAT): 70% and 65%
- % activity (Echinocloa crus-galli; Ex. 26 solo 62.5 gai/ha, 21 DAT, ECHCG): 50%
- % activity (Echinocloa crus-galli; Ex. 26 solo 250 gai/ha, 20 DAT, ECHCG): 65%
- % activity (Digitaria sanguinalis; 20 DAT, DIGSA, Ex. 26 solo 125 gai/ha): 0%
- % activity (Digitaria sanguinalis; [1]): 0%
- % activity (Digitaria sanguinalis; 20 DAT, Ex. 26 solo 250 gai/ha): 20% and 30%
- % activity (Digitaria sanguinalis; 21 DAT, Ex. 26 solo 125 gai/ha): 0%
- % activity (Digitaria sanguinalis; DIGSA, 21 DAT, solo Ex. 26 62.5 gai/ha): 20%
- % activity (Digitaria sanguinalis; DIGSA, 21 DAT, solo Ex. 26 125 gai/ha): 20%
- % activity (Digitaria sanguinalis; DIGSA, 21 DAT, solo Ex. 26 250 gai/ha): 20%
- % activity (Digitaria sanguinalis; DIGSA, Ex. 26 solo 125 gai/ha, 20 DAT): 0%
- % activity (Digitaria sanguinalis; Ex. 26 solo 62.5 gai/ha, 20 DAT, DIGSA): 0%
- % activity (Apera spica-venti; 20 DAT, APESV, Ex. 26 solo 62.5 gai/ha): 70%
- % activity (Apera spica-venti; 20 DAT, APESV, Ex. 26 solo 125 gai/ha): 75%
- % activity (Apera spica-venti; 20 DAT, APESV, Ex. 26 solo 250 gai/ha): 80%
- % activity (Apera spica-venti; 21 DAT, Ex. 26 solo 125 gai/ha): 65%
- % activity (Apera spica-venti; 21 DAT, Ex. 26 solo 250 gai/ha): 75%
- % activity (Apera spica-venti; APESV, Ex. 26 solo 125 gai/ha, 20 DAT): 75% and 70%
- % activity (Apera spica-venti; APESV, Ex. 26 solo 250 gai/ha, 20 DAT): 75%
- % activity (Apera spica-venti; Ex. 26 solo 62.5 gai/ha, 20 DAT, APESV): 60%
- % activity (Apera spica-venti; Ex. 26 solo 125 gai/ha, 20 DAT, APESV): 70%
- % activity (Apera spica-venti; Ex. 26 solo 250 gai/ha, 20 DAT, APESV): 75%
